Source: patent publication US7250269B2, “Composition for assaying glycoprotein” (Asahi Kasei Pharma Corporation, priority 2001, dated 2007)

How the values were obtained:
Type in all cases: biochemical
[1] = molecular target: T1, HSA substrate solution; Albumin Human (Homo sapiens, UniProt P02768); test: Activity of various proteases on HSA substrate solution (released glycated amino acids/peptides assayed with R-FOD); conditions: pH 8.0; 37° C. for 30 minutes
T1 construct: purchased Sigma-Aldrich Co
Description: (§1) • 1. […] GA % was assayed using a glycated albumin analyzer (GAA-2000, manufactured by ARKRAY, Inc.). • 2. G-II and III substrate solutions, FRA value=48 μmol/L [Globulins Human Cohn Fraction II and III; 16.9 mg/ml (manufactured by Sigma-Aldrich Co.)] • 3. G-IV substrate solution, FRA value=26 μmol/L [Globulins Human Cohn Fraction IV; 6 mg/ml (manufactured by Sigma-Aldrich Co.)] • 4. G-I substrate solution, FRA value=77 μmol/L [Glovenin I: immunoglobulin preparation (manufactured by Takeda Chemical Industries, Ltd.)] • 5. Hb substrate solution: Hemoglobin Human; 55 mg/ml, glycated hemoglobin rate: HbA1c=4.5% [manufactured by Sigma-Aldrich Co., the HbA1c value was determined using a glycated hemoglobin analyzer (Hi-Auto A1C HA-8150, manufactured by ARKRAY, Inc.)]. […]
(§2) 300 μl of the above reaction solution for assaying glycated amino acids was added to a cell and incubated for three minutes at 37° C. […] Absorbances (A0 blank and A1 blank) were measured. The reaction of protease with glycated proteins is indicated by the following absorbance change. ΔA=(A1−A0)−(A1 blank−A0 blank)

[2] = test system: G-I substrate solution (Glovenin I: immunoglobulin preparation); test: Activity of various proteases on G-I substrate solution (R-FOD assay); conditions: pH 8.0, 37° C. for 30 minutes
Description: as §1, §2

[3] = molecular target: T2, Hb substrate solution: Hemoglobin Human (Homo sapiens, UniProt P68871+P69905); test: Activity of various proteases on Hb substrate solution (R-FOD assay); conditions: pH 8.0; 37° C. for 60 minutes
T2 construct: purchased Sigma-Aldrich Co
Description: as §1, §2

[4] = molecular target: Fusarium oxysporum IFO-9972 fructosyl amino acid oxidase (FOD), mutant with 372nd lysine of SEQ ID NO: 1 replaced with serine (Fusarium oxysporum, UniProt X0D315, K373S); test: Substrate specificity of mutant FOD, Table 6 (372nd lysine replaced with serine); conditions: for Kcat: substrate glycated amino acid
Description: (§3) <<Method for Measuring Activity of Enzyme Reacting with Glycated Amino Acid>>
(§4) <Composition of Reaction Solution>
(§5) The glycated amino acid substrate specificity of FOD-mutated recombinant contained in the cell extract prepared in Example 16 was measured using the above-mentioned FOD enzyme activity measuring method. As a result, two mutants of which the reactivity with glycated valine is less than 1/1,000 the reactivity with glycated lysine were identified among candidate strains. These were regarded as the target mutants.
(§6) To observe the effect of replacement with other amino acids at the mutated amino acid site identified in Example 19, the site-directed mutagenesis according to the method of Kunkel et al. was carried out. Synthesis of an oligonucleotide having the base sequence of 1-27 in the sequence table Sequence ID No. 7 was consigned to an outside source (BEX Co., Ltd.). The oligonucleotide was subjected to the site-directed mutagenesis using the Mutan-K kit (manufactured by Takara Shuzo Co., Ltd.) according to the manual attached to the kit. The mutant gene obtained was incorporated again into the expression plasmid pTV119N, introduced into Escherichia coli host, and cultured at 30° C. for 16 hours in a 3.7% BHI liquid medium containing 50 μg/ml of ampicillin and 1 mM of IPTG to produce mutant FOD protein.

[5] = molecular target: Fusarium oxysporum IFO-9972 fructosyl amino acid oxidase (FOD), mutant with 372nd lysine of SEQ ID NO: 1 replaced with cysteine (Fusarium oxysporum, UniProt X0D315, K373C); test: Substrate specificity of mutant FOD, Table 6 (372nd lysine replaced with cysteine); conditions: for Kcat: substrate glycated amino acid
Description: as §3, §4, §5, §6

[6] = molecular target: Fusarium oxysporum IFO-9972 fructosyl amino acid oxidase (FOD), mutant FOD-V, 372nd lysine of SEQ ID NO: 1 replaced with valine, SEQ ID NO: 4 (Fusarium oxysporum, UniProt X0D315, K373V); test: Substrate specificity of mutant FOD-V, Table 6 (372nd lysine replaced with valine); conditions: for Kcat: substrate glycated amino acid
Description: as §3, §4, §5, §6
(§7) The mutant obtained by replacing the lysine with tryptophan was named FOD-W, the expression plasmid producing the FOD-W was named pcmFOD3, the mutant obtained by replacing the lysine with methionine was named FOD-M, the expression plasmid producing the FOD-M was named pcmFOD4, the mutant obtained by replacing the lysine with valine was named FOD-V, and the expression plasmid producing the FOD-V was named pcmFOD5.

[7] = molecular target: Fusarium oxysporum IFO-9972 fructosyl amino acid oxidase (FOD), mutant FOD-M, 372nd lysine of SEQ ID NO: 1 replaced with methionine, SEQ ID NO: 3 (Fusarium oxysporum, UniProt X0D315, K373M); test: Substrate specificity of mutant FOD-M, Table 6 (372nd lysine replaced with methionine); conditions: for Kcat: substrate glycated amino acid
Description: as §3, §4, §5, §6, §7

[8] = molecular target: Fusarium oxysporum IFO-9972 fructosyl amino acid oxidase (FOD), wild type (372nd lysine), SEQ ID NO: 1 (Fusarium oxysporum, UniProt X0D315); test: Substrate specificity of FOD, Table 6 (372nd amino acid Lysine, wild type); conditions: for Kcat: substrate glycated amino acid
Description: as §3, §4, §5, §6

[9] = molecular target: Fusarium oxysporum IFO-9972 fructosyl amino acid oxidase (FOD), mutant FOD-W, 372nd lysine of SEQ ID NO: 1 replaced with tryptophan, SEQ ID NO: 2 (Fusarium oxysporum, UniProt X0D315, K373W); test: Substrate specificity and Km of mutant FOD-W (372nd lysine replaced with tryptophan); conditions: substrate glycated amino acid, "below limit" = below the detection limit
Description: as §3, §4, §5
as §6, with “protein. […]” for “protein.”

[10] = molecular target: Fusarium oxysporum IFO-9972 fructosyl amino acid oxidase (FOD), mutant with 372nd lysine of SEQ ID NO: 1 replaced with arginine (Fusarium oxysporum, UniProt X0D315, K373R); test: Substrate specificity of mutant FOD, Table 6 (372nd lysine replaced with arginine); conditions: for Kcat: substrate glycated amino acid
Description: as §3, §4, §5
The base sequences of the mutant FOD genes obtained in Example 18 were determined according to the dideoxy method.
as §6

[11] = molecular target: Fusarium oxysporum IFO-9972 fructosyl amino acid oxidase (FOD), mutant with 372nd lysine of SEQ ID NO: 1 replaced with threonine (Fusarium oxysporum, UniProt X0D315, K373T); test: Substrate specificity of mutant FOD, Table 6 (372nd lysine replaced with threonine); conditions: for Kcat: substrate glycated amino acid
Description: as §3, §4, §5, §6

[12] = molecular target: Fusarium oxysporum IFO-9972 fructosyl amino acid oxidase (FOD), mutant with 372nd lysine of SEQ ID NO: 1 replaced with alanine (Fusarium oxysporum, UniProt X0D315, K373A); test: Substrate specificity of mutant FOD, Table 6 (372nd lysine replaced with alanine); conditions: for Kcat: substrate glycated amino acid
Description: as §3, §4, §5, §6

T2 sequence (P69905 2-142 limits assumed): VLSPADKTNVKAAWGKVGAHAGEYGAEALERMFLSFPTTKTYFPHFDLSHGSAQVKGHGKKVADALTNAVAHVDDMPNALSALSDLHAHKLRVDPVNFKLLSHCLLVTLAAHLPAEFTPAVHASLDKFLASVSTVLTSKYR
T2 sequence (P68871 2-147 limits assumed): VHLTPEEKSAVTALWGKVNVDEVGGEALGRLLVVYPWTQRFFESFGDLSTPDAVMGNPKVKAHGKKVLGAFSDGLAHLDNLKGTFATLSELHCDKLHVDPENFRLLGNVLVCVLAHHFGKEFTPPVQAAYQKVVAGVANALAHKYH
T1 sequence (P02768 25-609): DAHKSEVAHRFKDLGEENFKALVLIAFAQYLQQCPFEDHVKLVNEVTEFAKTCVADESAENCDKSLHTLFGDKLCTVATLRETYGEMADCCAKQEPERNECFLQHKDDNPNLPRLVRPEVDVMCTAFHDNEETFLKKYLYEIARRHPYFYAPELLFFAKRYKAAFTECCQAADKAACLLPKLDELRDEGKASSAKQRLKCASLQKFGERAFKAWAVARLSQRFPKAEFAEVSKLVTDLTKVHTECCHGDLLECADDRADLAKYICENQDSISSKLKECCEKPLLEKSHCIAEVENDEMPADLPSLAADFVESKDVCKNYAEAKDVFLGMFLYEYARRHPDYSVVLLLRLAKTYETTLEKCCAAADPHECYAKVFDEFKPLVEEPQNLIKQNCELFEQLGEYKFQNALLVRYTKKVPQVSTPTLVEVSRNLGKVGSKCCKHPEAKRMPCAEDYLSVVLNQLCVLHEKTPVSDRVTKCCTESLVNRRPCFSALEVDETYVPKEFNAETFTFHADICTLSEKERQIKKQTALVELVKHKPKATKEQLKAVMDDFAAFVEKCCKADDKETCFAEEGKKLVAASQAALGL

| Compound | ΔA HSA [1] | ΔA Gl [2] | ΔA Hb [3] | Kcat reactivity ratio (a)/(b), glycated lysine/glycated valine [4] | Kcat [4] | Kcat reactivity ratio (a)/(b), glycated lysine/glycated valine [5] | Kcat [5] | Kcat reactivity ratio (a)/(b), glycated lysine/glycated valine [6] | Kcat [6] | Kcat reactivity ratio (a)/(b), glycated lysine/glycated valine [7] | Kcat [7] | Kcat reactivity ratio (a)/(b), glycated lysine/glycated valine [8] | Kcat [8] | Kcat [9] | Kcat reactivity ratio (a)/(b), glycated lysine/glycated valine [10] | Kcat [10] | Kcat reactivity ratio (a)/(b), glycated lysine/glycated valine [11] | Kcat [11] | Kcat reactivity ratio (a)/(b), glycated lysine/glycated valine [12] | Kcat [12] |
| --- | --- | --- | --- | --- | --- | --- | --- | --- | --- | --- | --- | --- | --- | --- | --- | --- | --- | --- | --- | --- |
| Chymotrypsin | 25 mAbs | 103 mAbs | 7 mAbs | – | – | – | – | – | – | – | – | – | – | – | – | – | – | – | – | – |
| O=C(N[C@@H](CCCCNCC1(O)OC[C@@H](O)[C@@H](O)[C@@H]1O)C(=O)O)OCc1ccccc1 (stereo partly drawn) [glycated lysine, α-carbobenzoxy-ε-D-1-deoxy-fructosyl lysine] | – | – | – | 747 | 1250 | 1560 | 569 | 1420 | 1470 | 745 | 853 | 27.1 | 14900 | 248 | 788 | 351 | 2010 | 952 | 1480 | 1790 |
| Pancreatin | 52 mAbs | 100 mAbs | 17 mAbs | – | – | – | – | – | – | – | – | – | – | – | – | – | – | – | – | – |
| CC(C)[C@H](NCC1(O)OC[C@@H](O)[C@@H](O)[C@@H]1O)C(=O)O (some centres unmarked) [glycated valine, 1-deoxy-fructosyl valine] | – | – | – | – | 1.68 | – | 0.37 | – | 1.04 | – | 1.14 | – | 549 | below limit | – | 0.45 | – | 0.47 | – | 1.21 |
